According to patent US20110028447A1, “INDAZOLE DERIVATIVES” (Pfizer Inc., priority 2008, published 2011):
Read-outs that look alike come from different tables or passages of the source.

Assays:
[1] = target: T1, human CB1 receptor (Homo sapiens, UniProt P21554); assay: [35S] GTPγS binding on membranes of CHO cells expressing the human CB1 receptor (agonism); format: biochemical; set-up: expressed in transfected cells; membrane preparation
Outline: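 Membranes from human CB1-expressing CHO cells (5 μg/well) incubated with test compound and [35S]GTPγS in 50 mM Tris pH 7.4, 100 mM NaCl, 3 mM MgCl2, 0.2 mM EGTA, 0.04% BSA for 45 min at 37 °C. Bound label collected by filtration, scintillation counted; EC50 from curve fits.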

[2] = target: T1, human CB1 receptor; assay: Human CB1 receptor binding, [3H] CP-55,940 displacement on HEK cell membranes; set-up: expressed in transfected cells; host or cells: HEK cells, doxycycline-induced; membrane preparation
Outline: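 Radioligand displacement: [3H] CP-55,940 at […] final, 1 μg membrane protein per well from HEK cells with tetracycline-inducible human CB1, 60 min at room temperature, pH 7.4 Tris/NaCl/MgCl2/EGTA/BSA buffer. 50 μM WIN-55,212-2 set nonspecific binding; bound label filtered, counted, and fitted for EC50 and Ki values.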

[3] = GTPγS EC50, human CB1, CHO cell membranes
[4] = human CB1, CHO cell membranes, read-out: GTPγS EC50

T1 sequence (P21554 whole entry): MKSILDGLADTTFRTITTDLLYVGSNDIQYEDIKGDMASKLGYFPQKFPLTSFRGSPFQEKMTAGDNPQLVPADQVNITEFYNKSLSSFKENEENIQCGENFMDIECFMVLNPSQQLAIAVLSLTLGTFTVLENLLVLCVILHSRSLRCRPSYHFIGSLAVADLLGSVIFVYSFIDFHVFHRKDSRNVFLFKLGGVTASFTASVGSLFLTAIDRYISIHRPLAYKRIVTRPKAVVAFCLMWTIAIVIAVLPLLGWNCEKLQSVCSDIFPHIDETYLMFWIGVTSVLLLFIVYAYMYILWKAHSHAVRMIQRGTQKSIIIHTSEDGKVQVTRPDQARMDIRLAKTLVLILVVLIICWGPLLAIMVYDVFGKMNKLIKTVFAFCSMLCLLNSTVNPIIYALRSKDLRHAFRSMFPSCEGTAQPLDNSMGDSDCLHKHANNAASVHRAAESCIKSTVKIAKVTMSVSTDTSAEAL

Compound	EC50 [1, 3] [nM]	Ki ([2]; CB1 Ki) [nM]	EC50 [1, 4] [nM]	Ki ([2]; read-out: CB1 Ki) [nM]
CC(C)(C)[C@H](NC(=O)c1nn(Cc2ccc(F)cc2)c2ccccc12)C(=O)NC(CO)CO [Example 241]	5.72	1.65	–	–
CC(C)(C)[C@H](NC(=O)c1nn(Cc2ccc(F)cc2)c2ccccc12)C(=O)N1CCOCC1 [Example 242]	3.37	0.36	–	–
CC(C)(C)[C@H](NC(=O)c1nn(Cc2ccc(C#N)cc2)c2ccccc12)C(=O)N1CCOCC1 [Example 243]	91.3	11.3	–	–
CC(C)(C)[C@H](NC(=O)c1nn(Cc2ccc(F)cc2)c2ccccc12)C(=O)N1CCN(S(C)(=O)=O)CC1 [Example 244]	–	–	16.2	2.42
CC(C)(C)[C@H](NC(=O)c1nn(Cc2ccc(F)cc2)c2ccccc12)C(=O)N1CCN(S(=O)(=O)C2CC2)CC1 [Example 245]	–	–	12.4	2.61
CC(C)(C)[C@H](NC(=O)c1nn(Cc2ccc(F)cc2)c2ccccc12)C(=O)N[C@H](CO)C(N)=O [Example 246]	69	6.58	–	–
CC(C)(C)[C@H](NC(=O)c1nn(Cc2ccc(F)cc2)c2ccccc12)C(=O)N1C[C@@H](O)[C@H](O)C1 [Example 247]	0.95	0.65	–	–
CC(C)(C)[C@H](NC(=O)c1nn(Cc2ccc(F)cc2)c2ccccc12)C(=O)N1CCOC(CO)C1 (stereo partly shown) [Example 249]	16.3	2.51	–	–
CC(C)(C)[C@H](NC(=O)c1nn(Cc2ccc(F)cc2)c2ccccc12)C(=O)NC[C@H]1CCCC[C@H]1O [Example 250]	–	–	18.1	3.72
CC(C)(C)[C@H](NC(=O)c1nn(Cc2ccc(F)cc2)c2ccccc12)C(=O)N1CCCC(O)C1 (stereo partly shown) [Example 251]	2.33	0.51	–	–
CC(C)(C)[C@H](NC(=O)c1nn(Cc2ccc(F)cc2)c2ccccc12)C(=O)NC[C@H]1CCCC[C@@H]1O [Example 253]	–	–	26	4.5
CC(C)(C)[C@H](NC(=O)c1nn(Cc2ccc(C(F)(F)F)cc2)c2ccccc12)C(N)=O [Example 254]	153	12.3	–	–
CC(C)(C)[C@H](NC(=O)c1nn(Cc2ccc(C(F)(F)F)cc2)c2ccccc12)C(=O)NCCO [Example 255]	130	13.1	–	–
CC(C)(C)[C@H](NC(=O)c1nn(Cc2ccc(F)cc2)c2ccccc12)C(=O)N1CCN(CC(N)=O)CC1 [Example 262]	–	–	38.9	8.25
CC(C)(C)[C@H](NC(=O)c1nn(Cc2ccccc2)c2ccccc12)C(=O)NCCNS(=O)(=O)c1ccc(C#N)cc1 [Example 263]	–	–	100	8.36
CC(C)(C)[C@H](NC(=O)c1nn(Cc2ccc(C#N)cc2)c2ccccc12)C(=O)NCCNS(=O)(=O)c1ccc(C#N)cc1 [Example 264]	–	–	103	6.75
CC(C)(C)[C@H](NC(=O)c1nn(Cc2ccc(C#N)cc2F)c2ccccc12)C(=O)NCCNS(=O)(=O)c1ccc(C#N)cc1 [Example 265]	–	–	82	13.1
CC(C)(C)[C@H](NC(=O)c1nn(Cc2ccc(F)cc2)c2ccccc12)C(=O)NCCNS(=O)(=O)c1ccc(C#N)cc1 [Example 266]	–	–	4.34	0.94
CC(C)(C)[C@H](NC(=O)c1nn(Cc2ccc(F)cc2)c2ccccc12)C(=O)NCC#N [Example 270]	2.62	0.76	–	–
CC(C)(C)[C@H](NC(=O)c1nn(Cc2ccc(F)cc2)c2ccccc12)C(=O)NCCC#N [Example 271]	24.9	2.91	–	–
CC(C)(C)[C@H](NC(=O)c1nn(Cc2ccc(F)cc2)c2ccccc12)C(=O)NC1CCOC1 (stereo partly shown) [Example 281]	37.4	4.83	–	–
CC(C)(C)[C@H](NC(=O)c1nn(Cc2ccc(F)cc2)c2c(F)c(F)ccc12)C(N)=O [Example 282]	0.78	0.17	–	–
CC(C)(C)[C@H](NC(=O)c1nn(Cc2ccc(F)cc2)c2ccccc12)C(=O)N1C[C@@H](O)[C@@H](O)C1 [Example 284]	12.3	1.03	–	–
CC(C)(C)[C@H](NC(=O)c1nn(Cc2ccc(C#N)cc2)c2c(F)cccc12)C(=O)N[C@@H]1CCc2ccccc21 [Example 286]	–	–	36.1	5.74

Compound	EC50 [1, 3] [nM]	Ki ([2]; CB1 Ki) [nM]	EC50 [1, 4] [nM]	Ki ([2]; read-out: CB1 Ki) [nM]
CC(C)(C)[C@H](NC(=O)c1nn(Cc2ccc(F)cc2)c2ccccc12)C(=O)N[C@H]1CC[C@@H](O)C1 [Example 288]	9.53	1.18	–	–
CC(C)(C)[C@H](NC(=O)c1nn(Cc2ccc(F)cc2)c2ccccc12)C(=O)N[C@@H]1CC[C@@H](O)C1 [Example 289]	35.8	5.13	–	–
CC(C)(C)[C@H](NC(=O)c1nn(Cc2ccc(F)cc2)c2ccccc12)C(=O)N1CCC[C@H]1C(N)=O [Example 292]	19	5.25	–	–
CC(C)(C)[C@H](NC(=O)c1nn(Cc2ccc(C#N)cc2)c2cc(F)ccc12)C(=O)NCCO [Example 295]	64.3	9.17	–	–
CC(C)(C)[C@H](NC(=O)c1nn(Cc2ccc(C#N)cc2)c2cc(F)ccc12)C(=O)NC1CC1 [Example 299]	23.8	8.56	–	–
CC(C)(C)[C@H](NC(=O)c1nn(Cc2ccc(C#N)cc2)c2cc(F)ccc12)C(N)=O [Example 300]	121	5.85	–	–
CC(C)NC(=O)OC1CCN(C(=O)[C@@H](NC(=O)c2nn(Cc3ccc(F)cc3)c3ccccc23)C(C)(C)C)CC1 [Example 302]	–	–	33.1	5.41
CCNC(=O)OC1CCN(C(=O)[C@@H](NC(=O)c2nn(Cc3ccc(F)cc3)c3ccccc23)C(C)(C)C)CC1 [Example 303]	–	–	11	2.27
CC(C)(C)[C@H](NC(=O)c1nn(Cc2ccc(F)cc2)c2ccccc12)C(=O)NCC1=NCCN1 [Example 305]	86.4	18	–	–
CC(C)(C)[C@H](NC(=O)c1nn(Cc2ccc(F)cc2)c2ccccc12)C(=O)N1CCC[C@H]1CO [Example 306]	1.39	0.78	–	–
CC(C)(C)[C@H](NC(=O)c1nn(Cc2ccc(F)cc2)c2ccccc12)C(=O)N1CCC[C@@H]1CO [Example 307]	1.56	1.27	–	–
CC(C)(C)[C@H](NC(=O)c1nn(Cc2ccc(C#N)cc2)c2ccccc12)C(=O)NCC(F)(F)F [Example 308]	5.55	2.63	–	–
CC(C)(C)[C@H](NC(=O)c1nn(Cc2ccc(C#N)cc2)c2c(F)cccc12)C(=O)NCC(F)(F)F [Example 309]	2.59	1.59	–	–
CC(C)(C)[C@H](NC(=O)c1nn(Cc2ccc(C#N)cc2)c2cc(F)ccc12)C(=O)NCC(F)(F)F [Example 310]	2.1	1.48	–	–
CC(C)(C)[C@H](NC(=O)c1nn(Cc2ccc(F)cc2)c2ccccc12)C(=O)NCC1CNC(=O)O1 (stereo partly shown) [Example 315]	8.67	2.91	–	–
CC(=O)N1CCC(NC(=O)[C@@H](NC(=O)c2nn(Cc3ccc(F)cc3)c3ccccc23)C(C)(C)C)C1 (stereo partly shown) [Example 320]	–	–	63.2	12
CC(C)(C)[C@H](NC(=O)c1nn(Cc2ccc(F)cc2)c2c(F)c(F)ccc12)C(=O)NCC(N)=O [Example 321]	16.6	1.58	–	–
CC(C)(C)[C@H](NC(=O)c1nn(Cc2ccc(F)cc2)c2c(F)c(F)ccc12)C(=O)NC[C@@H](O)CO [Example 322]	109	8.89	–	–
CC(C)(C)[C@H](NC(=O)c1nn(Cc2ccc(F)cc2)c2c(F)c(F)ccc12)C(=O)NC[C@H](O)CO [Example 323]	22.5	2.99	–	–
CC(C)(C)[C@H](NC(=O)c1nn(Cc2ccc(F)cc2)c2c(F)c(F)ccc12)C(=O)NCCO [Example 324]	2.6	0.15	–	–
CC(C)(C)[C@H](NC(=O)c1nn(Cc2ccc(F)cc2)c2c(F)c(F)ccc12)C(=O)NC(CO)CO [Example 325]	5.33	1.97	–	–
CC(C)(C)[C@H](NC(=O)c1nn(Cc2ccc(F)cc2)c2c(F)c(F)ccc12)C(=O)NCCS(C)(=O)=O [Example 326]	53.2	15.8	–	–
CC(C)(C)[C@H](NC(=O)c1nn(Cc2ccc(F)cc2)c2c(F)c(F)ccc12)C(=O)NCCS(N)(=O)=O [Example 327]	18.1	4.19	–	–
